In brackets after ≈: the same amount, converted by molar mass. Where two headings read alike, the source gives them in different places.
Tests used:
Trichomonas foetus = test: In vitro anti-Trichomonas foetus activity (growth inhibition, viable cell count); type: cell-based, T. foetus KV1; conditions: for IC50: Tritrichomonas foetus, read-out: Anti-T. foetus ED50
Giardia lamblia [1] = test: In vitro anti-Giardia lamblia activity (growth inhibition, viable cell count by hemacytometer); type: cell-based; conditions: Giardia duodenalis, read-out: Anti-G. lamblia ED50
Description: About 1.0-2.0 ml of a nutrient medium, for example, the modified Diamond's TPS medium at pH 7.05, together with about 10% by volume of heat-inactivated serum and about 1% by volume of antibiotic-antimycotic solution is placed in each well of a multiwell plate. To this mixture, an aliquot of a suspension of G. lamblia cells containing about 10^6 organisms is added. Subsequently, each well is inoculated with a known concentration of one of the active compounds. The multiwell plate containing the individual culture samples is incubated under anaerobic conditions at about 37° C. for about 16-24 hrs. The number of viable cells remaining in each well are then counted, such as with a hemacytometer. […]
In each well of a mutliwell plate is placed 1.4 ml of media mix containing Diamond's TPS medium (see Table 2) at pH 7.05, 10% by volume of heat-inactivated fetal bovine serum, and 1% by volume of an antibiotic-antimycotic solution (see Table 3). […] The cells are resuspended in a small volume of the Diamond's medium, counted, and each well inoculated with approximately 10^6 organisms. […] After 24 hours of incubation each well is mixed and counted for viable organisms using a hemacytometer. The percentage of survival is determined by comparing the treated wells to controls treated with dimethylsulfoxide. […]

T. vaginalis = test: anti-T. vaginalis activity; type: cell-based, Trichomonas vaginalis; conditions: as shown in Table 1
[2] = cited from earlier work
Giardia lamblia [3] = conditions: background statement, human infection; cited from earlier work

With `O=c1[nH]cc(F)c(=O)[nH]1` [fluorouracil, 5-fluoro-2,4-(1H, 3H)pyrimidenedione] the “anti-T. foetus activity (in words)” value (Trichomonas foetus; 37° C., 24 hours) was “effective anti-T. foetus agent”, the IC50 (Trichomonas foetus; 24 h) was 3 µg/mL (≈ 23.1 µM) and the IC50 (Giardia lamblia [1]) was 100 µg/mL (≈ 769 µM).
In the case of `[O-][n+]1ccnc(O)c1` [emimycin, 2-hydroxypyrazine-4-oxide], the IC50 (Trichomonas foetus; effective concentration for 50% inhibition of growth, 37° C., 24 hours, T. foetus KV1) is reported as < 1 µg/mL, the “anti-T. vaginalis activity (in words)” value (T. vaginalis) is reported as “active anti-T. vaginalis agents” and the IC50 (Giardia lamblia [1]; effective concentration for 50% inhibition of growth, 37° C., anaerobic, about 16-24 hrs (24 hours in Example 1)) is reported as 22 µg/mL (≈ 196 µM).
For `CCN(CC)CCCC(C)Nc1c2ccc(Cl)cc2nc2ccc(OC)cc12` (stereo not drawn) [Atabrine], the “adverse side effects (in words)” value ([2]; in vivo) is given as “known to cause adverse side effects” and the “treatment of giardiasis (in words)” value (Giardia lamblia [3]) is given as “successfully treated”.
For `Cc1ncc([N+](=O)[O-])n1CCO` [Flagyl, metronidazole], the “adverse side effects (in words)” value ([2]; in vivo) is given as “known to cause adverse side effects” and the “treatment of giardiasis (in words)” value (Giardia lamblia [3]) is given as “successfully treated”.
For `O=C1OCCN1N=Cc1ccc([N+](=O)[O-])o1` [furazolidione], the “adverse side effects (in words)” value ([2]; background statement) is listed as “known to cause adverse side effects” and the “treatment of giardiasis (in words)” value (Giardia lamblia [3]) is listed as “successfully treated”.

— patent US4401671A, “Treatment of giardiasis and trichomoniasis” (priority 1982, dated 1983)
